Paper PMC6268492, “Synthesis and Antiangiogenic Activity of Novel Gambogic Acid Derivatives” (Molecules, 2012)

Tests used:
[1] = test system: zebrafish embryos; assay: Zebrafish toxicity: mortality rate; assay type: in vivo, zebrafish (Danio rerio)
Procedure: To investigate the toxicity of these four compounds, the heart rates and the mortality rates of zebrafish embryos were recorded (Table 2 and Table 3). The heart rate of zebrafish in the control group was 117 beats/min.
Using transgenic fli-1: enhanced GFP zebrafish embryos, we investigated the effects of all compounds on angiogenesis. Zebrafish embryos were generated by natural pairwise mating and raised at 28.5 °C in embryo water (0.2 g/L of Instant Ocean Salt in distilled water). At about 6 h post fertilization (hpf), the embryos were sorted in the 6-well plate (six embryos/well), removing dead and unhealthy embryos. Then the embryos were treated with the indicated concentrations of compounds which were added into embryo water. After incubation for 24 or 48 h, the embryos were anesthetized using 0.05% 2-phenoxyethanol in embryo water, quantified and photographed.

[2] = test system: HUVECs; assay: Wound-healing migration assay; assay type: cell-based, Human; conditions: 1 μM, 24 h, control = 100%
From the text: The migration of ECs is an important step of angiogenesis. The continuity of vascular ECs is the most important factor in preserving vessel wall function. Migration of ECs is essential to the recovery of this continuity after vascular ECs injury. […] As illustrated in Figure 3(I), the HUVECs migrated into the wound area actively (between the two white dash lines) under the compound-free condition (control).
Figure 3 Effects on the HUVECs migration. (I) HUVECs suspended in serum-free Dulbecco’s Modified Eagle Medium (DMEM) containing compounds (0.25 or 0.5 or 1 μM) for 24 h were photographed under a phase contrast microscopy (Olympus CKX41, magnification: 50×). Control was treated with serum-free DMEM which was consided as resulting in 100%; (II) Migration rates of compounds on the HUVECs. Data represented the mean standard deviation (SD) from three independent experiments. *** p < 0.005compared with control.
HUVECs were seeded in 6-well plates precoated with 0.1% gelatin, and grown overnight to confluence. The monolayer cells were wounded by scratching with 10 μL pipet tips and washed twice with serum-free DMEM (Dulbecco’s modified eagle medium) to remove the nonadherent cells and then replaced by serum-free DMEM with the indicated concentrations of compounds for 24 h. Images were taken at 0 h and 24 h independently after incubation at 37 °C, 5% CO2 environment. The migrated HUVECs were manually counted. The values were observed from four randomly selected fields.

[3] = test system: HUVEC; assay: MTT assay, cell proliferation; assay type: cell-based, Human; conditions: Homo sapiens, 24 h, read-out: IC50, inhibition of cell proliferation
Procedure, shortened: (§1)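 Viability after a 24 h compound exposure (5 × 10^3 cells/well, 37 °C) was measured by MTT reduction over 3 h with a 570 nm read-out. IC50 values are concentrations that halve proliferation relative to untreated control.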

[4] = test system: LO2; assay: MTT assay, cytotoxicity; assay type: cell-based; conditions: Homo sapiens, L02, 24 h, read-out: IC50, inhibition of cell proliferation
Procedure, shortened: as §1

CC(=O)Nc1ccc(NC(=O)/C(C)=C\CC23OC(C)(C)C4CC(C=C5C(=O)c6c(O)c7c(c(CC8OC8(C)C)c6OC542)OC(C)(CCC2OC2(C)C)C=C7)C3=O)cc1 (stereo not shown) [Compound 36, (32,33),(37,38)-Diepoxy-N-(4-acetamidophenyl) gambogamide]
Mortality rates ([1]; 1 μM, zebrafish): 0% | Mortality rates ([1]; 2.5 µM and 10 µM, zebrafish embryos): less than 20% | Mortality rates ([1]; 2.5 μM, zebrafish): 3.3 ± 5.77 % | Mortality rates ([1]; 10 μM, zebrafish): 16.7 ± 5.77 % | migratory rates [2]: 1.7% | IC50 [3]: 2450 ± 90 nM | IC50 [4]: 1620 ± 80 nM
